The source of these data is patent publication US6777413B2, “2-[1H]-quinolone and 2-[1H]-quinoxalone inhibitors of factor Xa” (Millennium Pharmaceuticals, Inc., priority 2000, dated 2004).

One test addresses prothrombinase complex (Homo sapiens, UniProt P00742). The test can be described thus: prothrombinase inhibition assay (IIASE). Conditions: plasma free system, Chromozym TH. The class given is biochemical. The protocol: The prothrombinase inhibition assay is performed in a plasma free system with modifications to the method described by Sinha, U. et al., Thromb. […] Specifically, the activity of the prothrombinase complex is determined by measuring the time course of thrombin generation using the p-nitroanilide substrate Chromozym TH. […] Aliquots from the complex-inhibitor mixture are added to prothrombin (1 nM) and Chromozym TH (0.1 mM). […] Eight different concentrations of inhibitor are assayed in duplicate. A standard curve of thrombin generation by an equivalent amount of untreated complex is used for determination of percent inhibition.

In another test the target is T1, TRYPSIN (Bos taurus, UniProt P00760).
T1 construct: gene PRSS1
T1 sequence (P00760 24-246): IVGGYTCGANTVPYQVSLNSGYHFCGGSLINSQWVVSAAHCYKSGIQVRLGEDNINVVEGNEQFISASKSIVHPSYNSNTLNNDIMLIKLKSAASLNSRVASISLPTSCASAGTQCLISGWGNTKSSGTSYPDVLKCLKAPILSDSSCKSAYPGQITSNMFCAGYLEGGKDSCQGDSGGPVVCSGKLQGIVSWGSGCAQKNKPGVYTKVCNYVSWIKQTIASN
The test can be described thus: trypsin protease inhibition. The class given is biochemical.

For a further test, the target named is factor Xa (Homo sapiens, UniProt P00742). As to the kind of experiment: factor Xa amidolytic assay (XA).
Sequence of factor Xa (P00742 235-488 limits assumed): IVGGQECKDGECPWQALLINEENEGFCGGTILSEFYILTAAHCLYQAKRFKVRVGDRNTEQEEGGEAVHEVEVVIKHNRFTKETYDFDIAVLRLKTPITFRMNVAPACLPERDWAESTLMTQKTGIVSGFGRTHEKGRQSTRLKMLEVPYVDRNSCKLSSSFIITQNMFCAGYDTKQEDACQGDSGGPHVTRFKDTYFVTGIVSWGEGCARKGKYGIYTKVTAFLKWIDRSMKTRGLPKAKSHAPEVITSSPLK
Sequence of factor Xa (P00742 41-179 limits assumed): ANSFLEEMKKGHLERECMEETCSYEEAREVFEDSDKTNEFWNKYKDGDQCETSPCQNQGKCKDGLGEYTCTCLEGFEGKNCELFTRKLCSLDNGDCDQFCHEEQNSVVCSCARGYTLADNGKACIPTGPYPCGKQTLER
In a further test the target is thrombin (Homo sapiens, UniProt P00734). As to the kind of experiment: thrombin amidolytic assay (IIA).

Sequence of prothrombinase complex (P00742 235-488 limits assumed): as the sequence (P00742 235-488 limits assumed) above
Sequence of prothrombinase complex (P00742 41-179 limits assumed): as the sequence (P00742 41-179 limits assumed) above
Sequence of prothrombinase complex (P12259 29-737 partner limits assumed): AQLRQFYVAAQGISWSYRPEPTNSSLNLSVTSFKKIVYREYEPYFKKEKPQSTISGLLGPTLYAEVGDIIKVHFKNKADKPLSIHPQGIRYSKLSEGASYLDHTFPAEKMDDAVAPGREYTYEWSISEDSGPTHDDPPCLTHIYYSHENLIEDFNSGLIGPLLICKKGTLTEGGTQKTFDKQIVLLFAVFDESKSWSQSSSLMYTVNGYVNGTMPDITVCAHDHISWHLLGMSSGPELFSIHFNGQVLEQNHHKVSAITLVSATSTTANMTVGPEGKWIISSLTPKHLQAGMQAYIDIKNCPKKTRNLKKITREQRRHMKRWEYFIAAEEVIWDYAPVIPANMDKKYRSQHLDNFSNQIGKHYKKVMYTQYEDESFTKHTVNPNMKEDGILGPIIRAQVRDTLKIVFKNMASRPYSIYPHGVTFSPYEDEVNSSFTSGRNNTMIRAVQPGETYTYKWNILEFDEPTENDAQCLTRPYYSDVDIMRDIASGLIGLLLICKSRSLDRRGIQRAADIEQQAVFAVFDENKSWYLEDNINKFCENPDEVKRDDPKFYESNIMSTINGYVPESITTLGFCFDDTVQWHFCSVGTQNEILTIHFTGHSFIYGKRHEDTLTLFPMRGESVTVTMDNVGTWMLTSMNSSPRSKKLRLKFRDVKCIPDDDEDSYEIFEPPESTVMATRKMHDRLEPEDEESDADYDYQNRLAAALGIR
Sequence of prothrombinase complex (P12259 1574-2224 partner limits assumed): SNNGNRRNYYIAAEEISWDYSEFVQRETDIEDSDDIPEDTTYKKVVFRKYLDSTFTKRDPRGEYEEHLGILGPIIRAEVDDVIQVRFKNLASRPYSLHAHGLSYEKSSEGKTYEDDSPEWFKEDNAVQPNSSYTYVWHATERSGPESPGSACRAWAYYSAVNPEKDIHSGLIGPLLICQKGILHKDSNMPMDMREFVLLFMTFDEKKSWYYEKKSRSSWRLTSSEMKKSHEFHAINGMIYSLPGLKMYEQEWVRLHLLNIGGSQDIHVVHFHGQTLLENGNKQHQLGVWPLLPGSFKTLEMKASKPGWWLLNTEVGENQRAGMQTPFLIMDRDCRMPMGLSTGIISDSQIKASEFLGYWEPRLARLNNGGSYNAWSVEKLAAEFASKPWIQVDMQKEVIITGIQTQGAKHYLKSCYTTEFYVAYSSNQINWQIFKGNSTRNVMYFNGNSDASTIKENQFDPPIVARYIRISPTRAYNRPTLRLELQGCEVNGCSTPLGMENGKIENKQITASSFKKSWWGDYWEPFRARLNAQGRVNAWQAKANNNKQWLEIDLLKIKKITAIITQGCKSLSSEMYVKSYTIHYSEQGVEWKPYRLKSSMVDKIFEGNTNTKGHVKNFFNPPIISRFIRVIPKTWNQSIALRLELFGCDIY
Experimental for factor Xa: In the assays for thrombin, prothrombinase and factor Xa, a synthetic chromogenic substrate is added to a solution containing test compound and the enzyme of interest and the residual catalytic activity of that enzyme is determined spectrophotometrically. The IC50 of a compound is determined from the substrate turnover. […] The factor Xa and thrombin assays are performed at room temperature, in 0.02 M Tris·HCl buffer, pH 7.5, containing 0.15 M NaCl.

As to `CCn1c(Cn2c(=O)ccc3cc(OC4CCN(C(C)=N)CC4)ccc32)cc2ccc(C(=N)NN)cc21` [Example 17], the IC50 on prothrombinase complex stood at 1.21 µM; on TRYPSIN, 0.832 µM; against factor Xa, 0.514 µM; against thrombin, 11 µM.
On to `N=C(N)c1ccc(-c2ccc(Cn3c(=O)ccc4cc(OC5CCNCC5)ccc43)cc2)cc1` [Example 12], for which the half-inhibitory concentration (IC50) against prothrombinase complex was determined as 15.5 µM; on TRYPSIN it was 4.41 µM; at factor Xa, 70 µM; at thrombin it was 9.13 µM.
The matching figures for `N=C(N)c1cccc(-c2ccccc2Cn2c(=O)ccc3cc(OC4CCNCC4)ccc32)c1` [Example 11]: 2.18 µM, 0.289 µM, 41.9 µM and 2.48 µM.
For `N=C(N)c1cccc(-c2ccc(Cn3c(=O)ccc4cc(OC5CCNCC5)ccc43)cc2)c1` [Example 6], in that order: 38.2 µM, 3.63 µM, 4.94 µM and 58.8 µM.
For `CC(=N)N1CCC(Oc2ccc3c(ccc(=O)n3Cc3cccc(-c4ccc(C(=N)N)cc4)c3)c2)CC1` [Example 15], in that order: 33.5 µM, 3.37 µM, 18.8 µM and 30.4 µM.
Take `CC(=N)N1CCC(Oc2ccc3c(ccc(=O)n3Cc3cccc(-c4cccc(C(=N)N)c4)c3)c2)CC1` [Example 4]: the IC50 at prothrombinase complex was determined as 0.157 µM; at TRYPSIN, 0.0477 µM; against factor Xa, 0.0118 µM; against thrombin it was 4.56 µM.
As to `CC(=N)N1CCC(Oc2ccc3c(ccc(=O)n3Cc3ccc(-c4cccc(C(=N)N)c4)cc3)c2)CC1` [Example 7], the IC50 came out at 0.362 µM against prothrombinase complex, 4.29 µM on TRYPSIN, 0.0823 µM against factor Xa and 45 µM on thrombin.
In the case of `CC(=N)N1CCC(Oc2ccc3c(ccc(=O)n3Cc3ccccc3-c3cccc(C(=N)N)c3)c2)CC1` [Example 9], the IC50 against prothrombinase complex came out at 0.697 µM; against TRYPSIN, 0.847 µM; at factor Xa, 2.55 µM.
For `CC(=N)N1CCC(Oc2ccc3c(ccc(=O)n3Cc3ccc(-c4ccc(C(=N)N)cc4)cc3)c2)CC1` [Example 13], the half-inhibitory concentration (IC50) is 8.63 µM against prothrombinase complex, 1.91 µM at TRYPSIN, 50 µM against factor Xa and 3 µM against thrombin.
As to `CCn1c(Cn2c(=O)ccc3cc(OC4CCN(C(C)=N)CC4)ccc32)cc2ccc(C(=N)N)cc21` [Example 14], the IC50 came out at 0.0143 µM on prothrombinase complex, 0.0104 µM at TRYPSIN, 0.00474 µM against factor Xa and 0.0693 µM at thrombin.
The matching figures for `N=C(N)c1cccc(-c2cccc(Cn3c(=O)ccc4cc(OC5CCNCC5)ccc43)c2)c1` [Example 5]: 46.3 µM, 0.263 µM, 1.57 µM and 6.59 µM.
The matching figures for `CC(=N)N1CCC(Oc2ccc3c(ccc(=O)n3Cc3ccccc3-c3ccc(C(=N)N)cc3)c2)CC1` [Example 10]: 1.2 µM, 52.5 µM, 137 µM and 0.995 µM.
The matching figures for `CN1CCC(Oc2ccc3c(ccc(=O)n3Cc3ccc4ccc(C(=N)N)cc4c3)c2)CC1` [Example 16]: 2.58 µM, 0.315 µM, 0.209 µM and 399 µM.
As to `N=C(N)c1ccc2ccc(Cn3c(=O)ccc4cc(OC5CCN(c6ncccn6)CC5)ccc43)cc2c1` [Example 18], the IC50 at prothrombinase complex was determined as 3.25 µM; against TRYPSIN, 0.656 µM; at factor Xa, 0.58 µM; at thrombin it was 75 µM.
For `N=C(N)c1ccc(-c2ccccc2Cn2c(=O)ccc3cc(OC4CCNCC4)ccc32)cc1` [Example 8], in that order: 1.92 µM, 56.6 µM, 501 µM and 1.7 µM.
Consider `N=C(N)c1ccc2ccc(Cn3c(=O)ccc4cc(OC5CCNCC5)ccc43)cc2c1` [Example 1], for which the IC50 against prothrombinase complex amounted to 9.11 µM; against TRYPSIN it was 0.0772 µM; at factor Xa, 0.151 µM; on thrombin, 122 µM.

In general, IC50 refers to the concentration that gives 50% inhibition.
